Reference: ChEMBL document CHEMBL1777761, “Tryptamine derivatives as novel non-nucleosidic inhibitors against hepatitis B virus” (Bioorg Med Chem, 2011)

Assays:
Hepatitis B virus = assay: Antiviral activity against Hepatitis B virus infected in human HepG2(2.2.15) cells assessed as inhibition of viral DNA replication after 4 days by RT-PCR analysis; type: functional, organism-based; conditions: HepG2 2.2.15, 96 h
[1] = Cytotoxicity against human HepG2(2.2.15) cells after 8 days by MTT assay; type: cell-based
[2] = Selectivity index, ratio of CC50 for human HepG2.2.15 cells to IC50 for Hepatitis B virus; type: functional

With `CC(C)CCN(C)CCc1c[nH]c2ccccc12` the IC50 (Hepatitis B virus) was > 25 µM and the CC50 at 192 h [1] was > 25 µM.
In the case of `O=[N+]([O-])c1cccc(CN(CCc2c[nH]c3ccccc23)Cc2cccc([N+](=O)[O-])c2)c1`, the IC50 (Hepatitis B virus) is reported as > 100 µM and the CC50 at 192 h [1] is reported as > 100 µM.
With `CCC[N+]([O-])(CCC)CCc1c[nH]c2ccccc12` the IC50 (Hepatitis B virus) was > 100 µM and the CC50 at 192 h [1] was > 100 µM.
For `CCN(CCc1c[nH]c2ccccc12)CCC(C)C`, the IC50 (Hepatitis B virus) was > 25 µM and the CC50 at 192 h [1] was > 25 µM.
For `CC(C)CCN(CCc1c[nH]c2ccccc12)Cc1ccco1`, the “Ratio CC50/IC50” value [2] was >4.7, the IC50 (Hepatitis B virus) was 5.3 µM and the CC50 at 192 h [1] was > 25 µM.
In the case of `c1ccc2c(CCN(CC3CCCCC3)CC3CCCCC3)c[nH]c2c1`, the IC50 (Hepatitis B virus) is reported as > 100 µM and the CC50 at 192 h [1] is reported as > 33.3 µM.
In the case of `[O-][N+](CCc1c[nH]c2ccccc12)(Cc1ccccn1)Cc1ccccn1`, the IC50 (Hepatitis B virus) is reported as > 100 µM and the CC50 at 192 h [1] is reported as 56.5 µM.
For `c1ccc2c(CCN(CC3CC3)CC3CC3)c[nH]c2c1`, the “Ratio CC50/IC50” value [2] was >16.7, the IC50 (Hepatitis B virus) was 6 µM and the CC50 at 192 h [1] was > 100 µM.
With `CC[N+]([O-])(CC)CCc1c[nH]c2ccccc12` the IC50 (Hepatitis B virus) was > 100 µM and the CC50 at 192 h [1] was > 100 µM.
With `C[N+](C)([O-])CCc1c[nH]c2ccc(Cl)cc12` the “Ratio CC50/IC50” value [2] was >3, the IC50 (Hepatitis B virus) was 8.4 µM and the CC50 at 192 h [1] was > 25 µM.
For `C[N+](C)([O-])CCc1c[nH]c2ccc(Br)cc12`, the “Ratio CC50/IC50” value [2] was >4.6, the IC50 (Hepatitis B virus) was 5.4 µM and the CC50 at 192 h [1] was > 25 µM.
With `[O-][N+](CCc1c[nH]c2ccccc12)(CC1CCCCC1)CC1CCCCC1` the IC50 (Hepatitis B virus) was > 100 µM and the CC50 at 192 h [1] was 23.1 µM.
With `CC(C)C[N+]([O-])(CCc1c[nH]c2ccccc12)CC(C)C` the IC50 (Hepatitis B virus) was > 100 µM and the CC50 at 192 h [1] was > 100 µM.
With `CC(C)CCN(CCc1c[nH]c2ccccc12)CC(C)C` the “Ratio CC50/IC50” value [2] was >23, the IC50 (Hepatitis B virus) was 1.1 µM and the CC50 at 192 h [1] was > 25 µM.
In the case of `CC(C)CN(CCc1c[nH]c2ccccc12)CC(C)C`, the “Ratio CC50/IC50” value [2] is reported as >8.2, the IC50 (Hepatitis B virus) is reported as 12.2 µM and the CC50 at 192 h [1] is reported as > 100 µM.
In the case of `CCN(CC)CCc1c[nH]c2ccccc12` [DIETHYLTRYPTAMINE], the IC50 (Hepatitis B virus) is reported as > 100 µM and the CC50 at 192 h [1] is reported as > 100 µM.
With `c1csc(CN(CCc2c[nH]c3ccccc23)Cc2cccs2)c1` the “Ratio CC50/IC50” value [2] was >8.5, the IC50 (Hepatitis B virus) was 3.9 µM and the CC50 at 192 h [1] was > 33.3 µM.
In the case of `C[N+](C)([O-])CCc1c[nH]c2ccccc12`, the “Ratio CC50/IC50” value [2] is reported as >5.7, the IC50 (Hepatitis B virus) is reported as 17.6 µM and the CC50 at 192 h [1] is reported as > 100 µM.
For `[O-][N+](CCc1c[nH]c2ccccc12)(Cc1cccs1)Cc1cccs1`, the “Ratio CC50/IC50” value [2] was >10.6, the IC50 (Hepatitis B virus) was 9.4 µM and the CC50 at 192 h [1] was > 100 µM.
With `[O-][N+](CCc1c[nH]c2ccccc12)(Cc1ccccc1)Cc1ccccc1` the IC50 (Hepatitis B virus) was > 100 µM and the CC50 at 192 h [1] was > 100 µM.
With `CCCN(CCC)CCc1c[nH]c2ccccc12` the IC50 (Hepatitis B virus) was > 100 µM and the CC50 at 192 h [1] was > 100 µM.
For `COc1cc(OC)c(OC)cc1CN(CCc1c[nH]c2ccccc12)Cc1cc(OC)c(OC)cc1OC`, the “Ratio CC50/IC50” value [2] was 17.2, the IC50 (Hepatitis B virus) was 1.2 µM and the CC50 at 192 h [1] was 21 µM.
In the case of `C[N+](C)([O-])CCc1c[nH]c2ccc(O)cc12`, the “Ratio CC50/IC50” value [2] is reported as >25, the IC50 (Hepatitis B virus) is reported as < 1 µM and the CC50 at 192 h [1] is reported as > 25 µM.
With `CC(C)CCN(CCc1c[nH]c2ccccc12)Cc1cccs1` the “Ratio CC50/IC50” value [2] was >2.5, the IC50 (Hepatitis B virus) was 10.1 µM and the CC50 at 192 h [1] was > 25 µM.
With `Nc1ccn([C@@H]2CS[C@H](CO)O2)c(=O)n1` [LAMIVUDINE] the “Ratio CC50/IC50” value [2] was 3557, the IC50 (Hepatitis B virus) was 0.33 µM and the CC50 at 192 h [1] was 1170 µM.
For `c1ccc(CN(CCc2c[nH]c3ccccc23)Cc2ccccc2)cc1`, the “Ratio CC50/IC50” value [2] was 0.95, the IC50 (Hepatitis B virus) was 13 µM and the CC50 at 192 h [1] was 12.4 µM.
In the case of `CN(C)CCc1c[nH]c2ccccc12` [N,N-DIMETHYLTRYPTAMINE], the IC50 (Hepatitis B virus) is reported as > 100 µM and the CC50 at 192 h [1] is reported as > 100 µM.
For `c1ccc(CN(CCc2c[nH]c3ccccc23)Cc2ccccn2)nc1`, the IC50 (Hepatitis B virus) was > 25 µM and the CC50 at 192 h [1] was 5.8 µM.
With `[O-][N+](CCc1c[nH]c2ccccc12)(Cc1ccco1)Cc1ccco1` the “Ratio CC50/IC50” value [2] was >13.3, the IC50 (Hepatitis B virus) was 7.5 µM and the CC50 at 192 h [1] was > 100 µM.
With `[O-][N+](CCc1c[nH]c2ccccc12)(CC1CC1)CC1CC1` the IC50 (Hepatitis B virus) was > 100 µM and the CC50 at 192 h [1] was > 100 µM.
With `CC(C)CCN(CCc1cn(S(=O)(=O)c2ccccc2)c2ccccc12)CCC(C)C` the IC50 (Hepatitis B virus) was > 25 µM and the CC50 at 192 h [1] was 15 µM.
With `c1coc(CN(CCc2c[nH]c3ccccc23)Cc2ccco2)c1` the “Ratio CC50/IC50” value [2] was 7.8, the IC50 (Hepatitis B virus) was 3.5 µM and the CC50 at 192 h [1] was 27.3 µM.
In the case of `CC(C)CCN(CCc1c[nH]c2ccccc12)CCC(C)C`, the “Ratio CC50/IC50” value [2] is reported as 102, the IC50 (Hepatitis B virus) is reported as 0.4 µM and the CC50 at 192 h [1] is reported as 40.6 µM.
In the case of `CC(C)CCNCCc1c[nH]c2ccccc12`, the IC50 (Hepatitis B virus) is reported as > 25 µM and the CC50 at 192 h [1] is reported as > 25 µM.
For `CCCN(CCc1c[nH]c2ccccc12)CCC(C)C`, the “Ratio CC50/IC50” value [2] was >1.25, the IC50 (Hepatitis B virus) was 20 µM and the CC50 at 192 h [1] was > 25 µM.
For `CC(C)CC[N+]([O-])(CCc1c[nH]c2ccccc12)CCC(C)C`, the CC50 at 192 h [1] was 77.6 µM.
